Measured values as given in patent US8591878B2, “Therapeutic compounds” (Merck Sharp & Dohme Corp., priority 2008, dated 2013).

Tested on: subgenomic HCV replicon in Huh-7 cells
Test: Cell-Based HCV Replication Assay (replicon, NS3 Cell-ELISA)
Set-up: species or system hepatitis C virus (HCV)
Conditions: Hepatitis C virus, Huh-7, 96 h, read-out: Cell based HCV Replication Assay-IC50
Description: Another suitable assay is the cellular Replicon or rheplisa assay described as follows:
Cell-Based HCV Replication Assay
Cell clones that stably maintain subgenomic HCV replicon were obtained by transfecting Huh-7 cells with an RNA replicon identical to I377neo/NS3-3′/wt described by V. Lohmann et al., 285 SCIENCE 110 (Jul. 2, 1999) (EMBL-GENBANK No. AJ242652), followed by selection with neomycin sulfate (G418). Viral replication was monitored by measuring the expression of the NS3 protein by an ELISA assay performed directly on cells grown in 96-well microtiter plates (Cell-ELISA) using the anti-NS3 monoclonal antibody 10E5/24 (as described in International Patent Application Publication WO 02/59321). Cells were seeded into 96 well plates at a density of 10^4 cells per well in a final volume of 0.1 ml of DMEM/10% FCS. Two hours after plating, 50 μl of DMEM/10% FCS containing a 3× concentration of inhibitor were added, cells were incubated for 96 hours and then fixed for 10 minutes with ice-cold isopropanol. Each condition was tested in duplicate and average absorbance values were used for calculations. The cells were washed twice with PBS, blocked with 5% non-fat dry milk in PBS+0.1% TRITON X-100+0.02% SDS (PBSTS) and then incubated o/n at 4° C. with the 10E5/24 mab diluted in Milk/PBSTS. After washing 5 times with PBSTS, the cells were incubated for 3 hours at room temperature with Fe-specific anti-mouse IgG conjugated to alkaline phosphatase (Sigma), diluted in Milk/PBSTS. After washing again as above, the reaction was developed with p-nitrophenyl phosphate disodium substrate (Sigma) and the absorbance at 405/620 nm read at intervals. For calculations, we used data sets where samples incubated without inhibitors had absorbance values comprised between 1 and 1.5. The inhibitor concentration that reduced by 50% the expression of NS3 (IC50) was calculated by fitting the data to the Hill equation, Fraction inhibition=1−(Ai−b)/(A0−b)=[I]^n/([I]+IC50) where: • Ai=absorbance value of HBI10 cells supplemented with the indicated inhibitor concentration. • A0=absorbance value of HBI10 cells incubated without inhibitor. • b=absorbance value of Huh-7 cells plated at the same density in the same microtiter plates and incubated without inhibitor. • n=Hill coefficient.

| Compound | IC50 [nM] |
| --- | --- |
| C=C[C@@H]1C[C@]1(NC(=O)[C@@H]1C[C@@H]2CN1C(=O)[C@H](C(C)(C)C)NC(=O)N1CCC[C@H]1CCCCc1cccc3c1CN(C3)C(=O)O2)C(=O)NS(=O)(=O)C1CC1 [Example 5, (1R,16R,23S,26S)-23-tert-butyl-N-((1R,2S)-1-{[(cyclopropylsulfonyl)amino]carbonyl}-2-vinylcyclopropyl)-3,21,24-trioxo-2-oxa-4,20,22,25-tetraazapentacyclo [23.2.1.1^4,7.0^6,11.0^16,20] nonacosa-6,8,10-triene-26-carboxamide] | 170 |
| C=C[C@@H]1C[C@]1(NC(=O)[C@@H]1C[C@@H]2CN1C(=O)[C@H](C1CCCCC1)NC(=O)N1CCC[C@H](C1)OCCCc1cc3c(nccc3cc1OC)O2)C(=O)NS(=O)(=O)C1CC1 [Example 11, (3R,5S,8S,15R)-8-cyclohexyl-N-((1R,2S)-1-{[(cyclopropylsulfonyl)amino]carbonyl}-2-vinylcyclopropyl)-21-methoxy-7,10-dioxo-2,16-dioxa-6,9,11,26-tetraazapentacyclo [18.6.2.1^3,6.1^11,15.0^23,27] triaconta-1(26),20,22,24,27-pentaene-5-carboxamide] | 6 |

Same assay, conditions: Hepatitis C virus; Huh-7 cells with subgenomic HCV replicon; NS3 expression by Cell-ELISA; 96 hours incubation; read-out: Cell based HCV Replication Assay-IC50

| Compound | IC50 [nM] |
| --- | --- |
| C=C[C@@H]1C[C@]1(NC(=O)[C@@H]1C[C@@H]2CN1C(=O)[C@H](C1CCCC1)NC(=O)N1CC[C@@H](C1)OCCCCCc1cc3ccc(OC)cc3nc1O2)C(=O)NS(=O)(=O)C1CC1 [Example 18, (1R,19S,25S,28S)-25-cyclopentyl-N-((1R,2S)-1-{[(cyclopropylsulfonyl)amino]carbonyl}-2-vinylcyclopropyl)-7-methoxy-23,26-dioxo-2,18-dioxa-4,22,24,27-tetraazapentacyclo [25.2.1.1^19,22.0^3,12.0^5,10] hentriaconta-3(12),4,5,7,9,10-hexaene-28-carboxamide] | 7 |
| C=C[C@@H]1C[C@]1(NC(=O)[C@@H]1C[C@@H]2CN1C(=O)[C@H](C1CCCC1)NC(=O)N1CC[C@@H](C1)OC/C=C/Cn1cc(C)c3c4ccccc4nc(c31)O2)C(=O)NS(=O)(=O)C1CC1 [Example 31, (4E,8S,14S,17S,19R)-14-cyclopentyl-N-((1R,2S)-1-{[(cyclopropylsulfonyl)amino]carbonyl}-2-vinylcyclopropyl)-1-methyl-12,15-dioxo-3,6,9,10,12,13,14,15,18,19-decahydro-8H,17H-8,11:16,19-dimethano-7,20-dioxa-2a,11,13,16,21-pentaazabenzo[g] cyclohenicosa[1,2,3-cd]indene-17-carboxamide] | 7 |
| C=CC1C[C@]1(NC(=O)[C@@H]1C[C@@H]2CN1C(=O)[C@H](C1CCCCC1)NC(=O)N1CCC(CC1)OCCCCCc1cc3c(cc(OCC)nc3cc1OC)O2)C(=O)NS(=O)(=O)C1CC1 (stereo in doubt) [Example 34, (3R,5S,8S)-8-cyclohexyl-N-((1R,2R)-1-{[(cyclopropylsulfonyl)amino]carbonyl}-2-vinylcyclopropyl)-26-ethoxy-22-methoxy-7,10-dioxo-2,15-dioxa-6,9,11,25-tetraazapentacyclo [19.6.2.2^11,14.1^3,6.0^24,28] dotriaconta-1(27),21,23,25,28-pentaene-5-carboxamide] | 7 |
| C=C[C@@H]1C[C@]1(NC(=O)[C@@H]1C[C@@H]2CN1C(=O)[C@H](C1CCCC1)NC(=O)N1CC[C@@H](C1)OCCC/C=C/c1cc3ccccc3cc1O2)C(=O)NS(=O)(=O)C1CC1 [Example 37, (1R,13E,19S,25S,28S)-25-cyclopentyl-N-((1R,2S)-1-{[(cyclopropylsulfonyl)amino]carbonyl}-2-vinylcyclopropyl)-23,26-dioxo-2,18-dioxa-22,24,27-triazapentacyclo [25.2.1.1^19,22.0^3,12.0^5,10] hentriaconta-3(12),4,5,7,9,10,13-heptaene-28-carboxamide] | 4 |
| C=C[C@@H]1C[C@]1(NC(=O)[C@@H]1C[C@@H]2CN1C(=O)[C@H](C1CCCC1)NC(=O)N1CCC[C@@H]1COCCCc1ccc3nc(OCC)nc(c3c1)O2)C(=O)NS(=O)(=O)C1CC1 [Example 28, (6R,8S,11S,17aR)-11-cyclopentyl-N-((1R,2S)-1-{[(cyclopropylsulfonyl)amino]carbonyl}-2-vinylcyclopropyl)-3-ethoxy-10,13-dioxo-7,8,10,11,12,13,16,17,17a,18, 20,21-dodecahydro-6H,15H-1,22-(ethanediylidene)-6,9-methanopyrimido [4,5-n] pyrrolo[2,1-c][1,13,4,6,9] dioxatriazacyclononadecine-8-carboxamide] | 6 |
| C=C[C@@H]1C[C@]1(NC(=O)[C@@H]1C[C@@H]2CN1C(=O)[C@H](C1CCCC1)CNC(=O)N1CC[C@H](COCCCc3nc4ccc(OC)cc4cc3O2)C1)C(=O)NS(=O)(=O)C1CC1 [Example 33, (1R,18S,24S,27S)-24-cyclopentyl-N-((1R,2R)-1-{[(cyclopropylsulfonyl)amino]carbonyl}-2-vinylcyclopropyl)-7-methoxy-22,25-dioxo-2,16-dioxa-11,21,23,26-tetraazapentacyclo [24.2.1.1^18,21.0^3,12.0^5,10] triaconta-3(12),4,5,7,9,10-hexaene-27-carboxamide] | > 100 |
| C=C[C@@H]1C[C@]1(NC(=O)[C@@H]1C[C@@H]2CN1C(=O)[C@H](C1CCCCC1)NC(=O)N1CCC[C@@H](C1)OCCCc1cc3c(cc(-c4ccccc4)nc3cc1OC)O2)C(=O)NS(=O)(=O)C1CC1 [Example 9, (3R,5S,8S,15S)-8-cyclohexyl-N-((1R,2S)-1-{[(cyclopropylsulfonyl)amino]carbonyl}-2-vinylcyclopropyl)-21-methoxy-7,10-dioxo-25-phenyl-2,16-dioxa-6,9,11,24-tetraazapentacyclo [18.6.2.1^3,6.1^11,15.0^23,27] triaconta-1(27),20,22,23,25,27-hexaene-5-carboxamide] | 7 |
| C=C[C@@H]1C[C@]1(NC(=O)[C@@H]1C[C@@H]2CN1C(=O)[C@H](C(C)(C)C)NC(=O)N1CCC[C@@H]1CC/C=C/c1cccc3c1CN(C3)C(=O)O2)C(=O)NS(=O)(=O)C1CC1 [Example 3, (1R,12E,16S,23S,26S)-23-tert-butyl-N-((1R,2S)-1-{[(cyclopropylsulfonyl)amino]carbonyl}-2-vinylcyclopropyl)-3,21,24-trioxo-2-oxa-4,20,22,25-tetraazapentacyclo [23.2.1.1^4,7.0^6,11.0^16,20] nonacosa-6,8,10,12-tetraene-26-carboxamide] | 16 |
| C=C[C@@H]1C[C@]1(NC(=O)[C@@H]1C[C@@H]2CN1C(=O)[C@H](C1CCCCC1)NC(=O)N1CC(C1)OCCC/C=C/c1cc3c(cc(OCC)nc3cc1OC)O2)C(=O)NS(=O)(=O)C1CC1 [Example 39, (3R,5S,8S,18E)-8-cyclohexyl-N-((1R,2S)-1-{[(cyclopropylsulfonyl)amino]carbonyl}-2-vinylcyclopropyl)-25-ethoxy-21-methoxy-7,10-dioxo-2,14-dioxa-6,9,11,24-tetraazapentacyclo [18.6.2.1^3,6.1^11,13.0^23,27] triaconta-1(26),18,20,22,24,27-hexaene-5-carboxamide] | 19 |

Same assay, conditions: Hepatitis C virus; Huh-7 replicon cells; NS3 expression by Cell-ELISA; 96 hours; read-out: Cell-based HCV Replication Assay: IC50

| Compound | IC50 [nM] |
| --- | --- |
| C=C[C@@H]1C[C@]1(NC(=O)[C@@H]1C[C@@H]2CN1C(=O)[C@H](C1CCCCC1)NC(=O)N1CCC[C@@H](C1)OCCCc1cc3c(cc(OCC)nc3cc1OC)O2)C(=O)NS(=O)(=O)C1CC1 [Example 1, (3R,5S,8S,15S)-8-Cyclohexyl-N-((1R,2S)-1-{[(cyclopropylsulfonyl)amino]carbonyl}-2-vinylcyclopropyl)-25-ethoxy-21-methoxy-7,10-dioxo-2,16-dioxa-6,9,11,24-tetraazapentacyclo[18.6.2.1^3,6.1^11,15.0^23,27]triaconta-1(27),20,22,23,25,27-hexaene-5-carboxamide] | 4 |

Same assay, conditions: Huh-7 cells with subgenomic HCV replicon; NS3 expression by Cell-ELISA; 96 hours incubation; read-out: Cell based HCV Replication Assay-IC50

| Compound | IC50 [nM] |
| --- | --- |
| (1R,13E,19S,25S,28S)-25- cyclohexyl-N-((1R,2S)-1- {[(cyclopropylsulfonyl)amino] carbonyl}-2- vinylcyclopropyl)-7-methoxy- 23,26-dioxo-2,18-dioxa- 4,22,24,27-tetraazapentacyclo [25.2.1.1^19,22.0^3,12.0^5,10] hentriaconta- 3(12),4,5,7,9,10,13-heptaene- 28-carboxamide [Example 42] | 3 |
